Experimental findings from US9783527B2, “Indazole ureas and method of use” (AbbVie Inc., priority 2014, dated 2017) are described below.

The target of one assay is human Nav1.8 (Homo sapiens (Human), UniProt Q9Y5Y9). Nature of the assay: FRET-based membrane potential assay, recombinant human sodium channel Nav1.8. The settings on record: HEK293 cells stably expressing recombinant human Nav1.8; depolarization with veratridine (EC80) + scorpion venom. The assay is classed as cell-based. The protocol: FRET-Based Membrane Potential Assays.
Recombinant, Human Sodium Channel, Nav1.8.
Two days prior to the experiment, frozen HEK293 cells stably expressing recombinant human Nav1.8 (Essen, Ann Arbor, Mich.) were quickly thawed and plated at 22,500 cells/well in growth medium [MEM (Invitrogen #11095) with 10% FBS (Invitrogen #10082), 1 mM sodium pyruvate (Invitrogen, #C11360), 10 units/mL penicillin/10 U/mL streptomycin/29.2 μg/mL glutamine ((PSG 1%, Invitrogen #10378), 400 μg/mL zeocin (Invitrogen #R250) in black-walled, clear-bottom 384-well poly-D-lysine-coated assay plates (Greiner Bio-One, Frickenhausen, Germany) and incubated in a humidified 5% CO2 incubator at 37° C. On the day of the assay, medium was removed by aspiration, and cells were washed with assay buffer [HBSS (Invitrogen, Carlsbad, Calif.) containing 20 mM HEPES (Invitrogen, Carlsbad, Calif.)]. After washing, 30 μL assay buffer containing the fluorescent voltage-sensor probe CC2-DMPE (Invitrogen, Carlsbad, Calif.) at 20 μM and 0.01% pluronic F-127 (Invitrogen, Carlsbad, Calif.) was added to the cells. Cells were incubated for 40 minutes at room temperature in the dark. Following the incubation, the cells were washed and 30 μL assay buffer containing 2.5 μM DiSBAC2(3) substrate (Invitrogen, Carlsbad, Calif.) and 0.5 mM VABSC-1 (Invitrogen, Carlsbad, Calif.) was added to the cells. The cells were incubated for 60 minutes at room temperature in the dark. Fluorescence readings were made using a FLIPR®^TETRA (Molecular Devices, Sunnyvale Calif.) equipped with voltage-sensor probe optics. The depolarizing agent, veratridine (Sigma-Aldrich, St. Louis, Mo.), was made up at 3× concentrations in assay buffer containing 1 mg/mL scorpion venom (SVqq, from Leiurus quinquestriatus; Sigma-Aldrich, St. Louis, Mo.). The assay agonist/opener concentration was determined each day using a 6-point veratridine concentration curve in duplicate, tested with three concentrations of tetracaine (0.1, 0.06, 0.01 μM all in 0.03% dimethyl sulfoxide) and 0.03% dimethyl sulfoxide control in assay buffer. […] Test compounds in the daughter plate were diluted to (˜3×) solutions in assay buffer immediately before assaying. Using the FLIPR®^TETRA, 20 μL of the (3×) compound solutions were first added to the cells, then 20 μL of depolarizing solution (3×EC80 veratridine+SVqq) were added 3 minutes later to activate the channel. Changes in fluorescence were measured at wavelengths of 440-480 nm and 565-625 nm over the course of the experimental run. Membrane depolarization was expressed as a ratio of the maximum F440-480 nm/F565-625 nm reading above average baseline F440-480 nm/F565-625 nm reading. IC50 values were calculated from curve fits of the ratio data using a four-parameter logistic Hill equation (Accelrys Assay Explorer 3.3 Client, Accelrys, San Diego, Calif.) with percent inhibition plotted against compound concentration.

For another assay, the target named is human Nav1.7 (Homo sapiens (Human), UniProt Q15858). Nature of the assay: FRET-based membrane potential assay, recombinant human sodium channel Nav1.7. The assay is classed as cell-based. The following applies: HEK293 cells stably expressing recombinant human Nav1.7; depolarization with veratridine (EC80) + scorpion venom. The method, boiled down:
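IC50 derived by four-parameter Hill fit of percent inhibition of depolarization, measured as peak F440-480/F565-625 ratio over baseline. Stable human Nav1.7 HEK293 cells, dye-loaded with CC2-DMPE and DiSBAC2(3)/VABSC-1 at room temperature, received compound 3 min ahead of veratridine (EC80) plus scorpion venom.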

Chain of human Nav1.8 (Q9Y5Y9 whole entry): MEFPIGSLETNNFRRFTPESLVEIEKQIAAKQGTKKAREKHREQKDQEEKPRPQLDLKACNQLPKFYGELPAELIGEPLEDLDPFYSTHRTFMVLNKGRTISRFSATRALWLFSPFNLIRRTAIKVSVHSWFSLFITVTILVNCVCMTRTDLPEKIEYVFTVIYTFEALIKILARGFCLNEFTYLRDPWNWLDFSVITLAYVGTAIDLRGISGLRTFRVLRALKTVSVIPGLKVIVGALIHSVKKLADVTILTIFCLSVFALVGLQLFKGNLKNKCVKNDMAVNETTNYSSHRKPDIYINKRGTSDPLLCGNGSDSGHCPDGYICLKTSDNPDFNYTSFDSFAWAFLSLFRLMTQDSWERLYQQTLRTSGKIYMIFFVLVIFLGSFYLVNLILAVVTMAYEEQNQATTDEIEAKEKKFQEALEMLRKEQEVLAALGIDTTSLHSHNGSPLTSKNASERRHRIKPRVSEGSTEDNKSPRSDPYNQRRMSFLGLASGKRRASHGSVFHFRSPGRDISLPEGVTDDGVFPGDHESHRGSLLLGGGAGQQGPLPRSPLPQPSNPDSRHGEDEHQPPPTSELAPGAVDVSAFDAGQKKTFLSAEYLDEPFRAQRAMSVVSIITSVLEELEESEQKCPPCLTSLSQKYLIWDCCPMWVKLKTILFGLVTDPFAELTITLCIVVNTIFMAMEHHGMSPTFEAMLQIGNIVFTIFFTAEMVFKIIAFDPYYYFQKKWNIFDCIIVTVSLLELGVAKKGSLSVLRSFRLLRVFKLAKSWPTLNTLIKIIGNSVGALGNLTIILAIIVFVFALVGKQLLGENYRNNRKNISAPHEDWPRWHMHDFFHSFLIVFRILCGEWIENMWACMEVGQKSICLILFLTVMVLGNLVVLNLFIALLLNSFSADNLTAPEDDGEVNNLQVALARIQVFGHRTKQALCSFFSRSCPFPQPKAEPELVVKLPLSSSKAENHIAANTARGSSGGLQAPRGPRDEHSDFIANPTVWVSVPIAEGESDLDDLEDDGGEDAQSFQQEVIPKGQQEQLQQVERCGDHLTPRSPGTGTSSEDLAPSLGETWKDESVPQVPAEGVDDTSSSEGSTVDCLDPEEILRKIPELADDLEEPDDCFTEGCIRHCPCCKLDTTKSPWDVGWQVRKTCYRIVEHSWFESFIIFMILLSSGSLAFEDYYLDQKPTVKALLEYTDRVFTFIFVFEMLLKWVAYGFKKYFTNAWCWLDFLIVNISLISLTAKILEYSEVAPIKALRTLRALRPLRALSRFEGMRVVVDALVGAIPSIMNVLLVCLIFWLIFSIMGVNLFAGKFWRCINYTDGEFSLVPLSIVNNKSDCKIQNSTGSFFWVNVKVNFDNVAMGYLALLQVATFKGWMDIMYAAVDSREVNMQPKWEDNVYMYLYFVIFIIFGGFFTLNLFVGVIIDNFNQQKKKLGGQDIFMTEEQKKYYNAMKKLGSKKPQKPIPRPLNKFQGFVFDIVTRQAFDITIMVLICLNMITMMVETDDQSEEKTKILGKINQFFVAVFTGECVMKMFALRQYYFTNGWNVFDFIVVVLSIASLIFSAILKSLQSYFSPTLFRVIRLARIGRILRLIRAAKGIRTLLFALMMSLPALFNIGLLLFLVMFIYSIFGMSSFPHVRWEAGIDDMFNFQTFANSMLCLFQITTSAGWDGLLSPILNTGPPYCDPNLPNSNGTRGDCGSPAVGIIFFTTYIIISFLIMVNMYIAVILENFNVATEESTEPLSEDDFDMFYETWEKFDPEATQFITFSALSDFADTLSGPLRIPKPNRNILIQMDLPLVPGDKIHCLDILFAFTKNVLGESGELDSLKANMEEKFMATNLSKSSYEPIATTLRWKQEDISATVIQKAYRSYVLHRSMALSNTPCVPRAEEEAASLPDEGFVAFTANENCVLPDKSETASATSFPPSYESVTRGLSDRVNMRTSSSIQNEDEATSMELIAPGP
Chain of human Nav1.7 (Q15858 whole entry): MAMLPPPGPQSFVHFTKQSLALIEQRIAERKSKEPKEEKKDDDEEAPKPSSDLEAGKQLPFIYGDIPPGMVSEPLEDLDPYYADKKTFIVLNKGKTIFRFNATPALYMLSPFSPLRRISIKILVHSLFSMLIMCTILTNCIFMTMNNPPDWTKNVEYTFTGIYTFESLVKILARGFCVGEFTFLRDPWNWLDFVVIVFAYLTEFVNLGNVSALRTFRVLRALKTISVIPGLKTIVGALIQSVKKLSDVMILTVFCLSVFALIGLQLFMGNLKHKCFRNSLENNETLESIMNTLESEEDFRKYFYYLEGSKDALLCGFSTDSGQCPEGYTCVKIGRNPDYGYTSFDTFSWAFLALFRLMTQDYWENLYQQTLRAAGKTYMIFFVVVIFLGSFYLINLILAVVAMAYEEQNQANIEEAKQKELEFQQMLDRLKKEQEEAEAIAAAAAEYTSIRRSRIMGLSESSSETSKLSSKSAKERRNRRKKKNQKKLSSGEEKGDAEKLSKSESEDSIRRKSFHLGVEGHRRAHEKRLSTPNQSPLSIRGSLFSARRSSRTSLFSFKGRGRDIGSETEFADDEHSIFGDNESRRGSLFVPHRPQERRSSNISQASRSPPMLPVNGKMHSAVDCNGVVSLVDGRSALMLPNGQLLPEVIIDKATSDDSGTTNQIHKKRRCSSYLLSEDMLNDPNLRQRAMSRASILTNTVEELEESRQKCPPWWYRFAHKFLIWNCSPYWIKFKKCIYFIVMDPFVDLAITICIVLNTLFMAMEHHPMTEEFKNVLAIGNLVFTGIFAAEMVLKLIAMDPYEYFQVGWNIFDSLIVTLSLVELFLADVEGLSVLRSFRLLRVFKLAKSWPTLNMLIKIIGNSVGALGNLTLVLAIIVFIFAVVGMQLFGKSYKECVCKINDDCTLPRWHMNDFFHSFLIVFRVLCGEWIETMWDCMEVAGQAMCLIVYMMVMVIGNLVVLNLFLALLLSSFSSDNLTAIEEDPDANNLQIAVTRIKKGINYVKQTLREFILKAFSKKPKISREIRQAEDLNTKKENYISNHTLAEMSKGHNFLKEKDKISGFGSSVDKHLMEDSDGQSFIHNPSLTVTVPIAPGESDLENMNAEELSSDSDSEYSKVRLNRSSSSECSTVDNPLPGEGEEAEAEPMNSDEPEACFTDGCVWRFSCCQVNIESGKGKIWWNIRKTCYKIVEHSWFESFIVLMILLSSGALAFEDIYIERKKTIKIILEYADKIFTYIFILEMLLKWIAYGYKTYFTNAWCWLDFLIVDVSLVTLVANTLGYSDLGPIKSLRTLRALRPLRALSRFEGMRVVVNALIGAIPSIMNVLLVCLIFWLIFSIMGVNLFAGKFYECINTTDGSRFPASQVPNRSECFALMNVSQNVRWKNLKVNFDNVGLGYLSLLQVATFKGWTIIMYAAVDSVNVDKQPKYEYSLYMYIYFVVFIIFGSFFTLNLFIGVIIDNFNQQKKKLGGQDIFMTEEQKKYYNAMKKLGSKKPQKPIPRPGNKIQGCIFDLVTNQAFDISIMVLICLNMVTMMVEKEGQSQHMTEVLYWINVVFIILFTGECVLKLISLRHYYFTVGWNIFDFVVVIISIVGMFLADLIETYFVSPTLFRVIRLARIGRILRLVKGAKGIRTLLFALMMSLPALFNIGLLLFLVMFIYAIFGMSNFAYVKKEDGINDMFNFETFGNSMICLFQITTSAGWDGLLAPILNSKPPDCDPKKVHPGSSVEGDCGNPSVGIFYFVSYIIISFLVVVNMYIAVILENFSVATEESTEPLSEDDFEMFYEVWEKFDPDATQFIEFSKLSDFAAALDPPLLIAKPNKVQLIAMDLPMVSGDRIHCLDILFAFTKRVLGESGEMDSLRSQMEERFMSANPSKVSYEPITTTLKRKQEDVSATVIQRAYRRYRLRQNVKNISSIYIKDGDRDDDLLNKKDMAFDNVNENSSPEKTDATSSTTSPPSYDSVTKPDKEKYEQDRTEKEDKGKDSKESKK

Broadly, the IC50 is the concentration that inhibits the measured activity by half. With `CC(C)COC(=O)N1CCN(c2cccc3c2cnn3-c2ccccc2F)C1=O` [Example 5, isobutyl 3-[1-(2-fluorophenyl)-1H-indazol-4-yl]-2-oxoimidazolidine-1-carboxylate], the figures for the IC50 on human Nav1.8 and at human Nav1.7 were 0.0572 µM and 0.166 µM, respectively.

`O=C(CN1CCN(c2cccc3c2cnn3C2CCCCC2)C1=O)N1CC[C@H](F)C1` [Example 294, 1-(1-cyclohexyl-1H-indazol-4-yl)-3-{2-[(3S)-3-fluoropyrrolidin-1-yl]-2-oxoethyl}imidazolidin-2-one]: the IC50 came out at 18.3 µM at human Nav1.8 and 7.17 µM on human Nav1.7.

Regarding `CO[C@H]1CCCC[C@@H]1N1CCN(c2cccc3c2cnn3-c2ccccc2F)C1=O` [Example 279, 1-[1-(2-fluorophenyl)-1H-indazol-4-yl]-3-[(1S,2S)-2-methoxycyclohexyl]imidazolidin-2-one], the concentration for half-maximal inhibition (IC50) on human Nav1.8 was 5.64 µM; on human Nav1.7, 1.86 µM.

With `CC(C)CO[C@H]1CCC[C@H]1NC(=O)CN1CCN(c2cccc3c2cnn3-c2ccccc2F)C1=O` [Example 337, 2-{3-[1-(2-fluorophenyl)-1H-indazol-4-yl]-2-oxoimidazolidin-1-yl}-N-[(1R,2S)-2-isobutoxycyclopentyl]acetamide], the concentration for half-maximal inhibition (IC50) was 0.846 µM at human Nav1.8 and 2.24 µM at human Nav1.7.

Turning to `O=C(CN1CCN(c2cccc3c2cnn3-c2ccccc2F)C1=O)NCCC(F)(F)F` [Example 343, 2-{3-[1-(2-fluorophenyl)-1H-indazol-4-yl]-2-oxoimidazolidin-1-yl}-N-(3,3,3-trifluoropropyl)acetamide], the results for the IC50 on human Nav1.8 and on human Nav1.7 were 1.27 µM and 3.06 µM, respectively.

For `O=C(CN1CCN(c2cccc3c2cnn3-c2ccccc2F)C1=O)N1CCC[C@H](O)C1` [Example 290, 1-[1-(2-fluorophenyl)-1H-indazol-4-yl]-3-{2-[(3S)-3-hydroxypiperidin-1-yl]-2-oxoethyl}imidazolidin-2-one], the IC50 at human Nav1.8 was 13.5 µM; on human Nav1.7 it was 4.15 µM.

Turning to `O=C(CN1CCN(c2cccc3c2cnn3-c2ccccc2F)C1=O)N1C[C@H]2CCC[C@H]2C1` [Example 342, 1-[1-(2-fluorophenyl)-1H-indazol-4-yl]-3-{2-[(3aR,6aS)-hexahydrocyclopenta[c]pyrrol-2(1H)-yl]-2-oxoethyl}imidazolidin-2-one], the concentration for half-maximal inhibition (IC50) is 0.746 µM at human Nav1.8 and 2.21 µM on human Nav1.7.

On to `O=C(CN1CCN(c2cccc3c2cnn3-c2ccccc2F)C1=O)N1CC(C(F)(F)F)C1` [Example 329, 1-[1-(2-fluorophenyl)-1H-indazol-4-yl]-3-{2-oxo-2-[3-(trifluoromethyl)azetidin-1-yl]ethyl}imidazolidin-2-one], for which the IC50 was determined as 3.13 µM at human Nav1.8 and 2.72 µM on human Nav1.7.

In the case of `O=C(CN1CCN(c2cccc3c2cnn3-c2ccccc2F)C1=O)NC1COC1` [Example 321, 2-{3-[1-(2-fluorophenyl)-1H-indazol-4-yl]-2-oxoimidazolidin-1-yl}-N-(oxetan-3-yl)acetamide], the values for the IC50 at human Nav1.8 and at human Nav1.7 were 5.67 µM and 5.79 µM, respectively.

Turning to `O=C(CN1CCN(c2cccc3c2cnn3-c2ccccc2F)C1=O)NC1CCCC(F)(F)C1` (stereo not shown) [Example 340, N-(3,3-difluorocyclohexyl)-2-{3-[1-(2-fluorophenyl)-1H-indazol-4-yl]-2-oxoimidazolidin-1-yl}acetamide], the IC50 on human Nav1.8 was found to be 0.637 µM; at human Nav1.7, 2.64 µM.

Turning to `O=C1CCN(C(=O)CN2CCN(c3cccc4c3cnn4-c3ccccc3F)C2=O)C1` [Example 302, 1-[1-(2-fluorophenyl)-1H-indazol-4-yl]-3-[2-oxo-2-(3-oxopyrrolidin-1-yl)ethyl]imidazolidin-2-one], the 50% inhibitory concentration (IC50) at human Nav1.8 stood at 7.18 µM; on human Nav1.7 it was 20 µM.

With `CC(C)(C)CCn1ncc2c(N3CCN(CC(=O)N4CCCC4)C3=O)cccc21` [Example 305, 1-[1-(3,3-dimethylbutyl)-1H-indazol-4-yl]-3-[2-oxo-2-(pyrrolidin-1-yl)ethyl]imidazolidin-2-one], the half-maximal inhibitory concentration (IC50) on human Nav1.8 was found to be 3.33 µM; at human Nav1.7 it was 3.67 µM.

Turning to `O=C(CN1CCN(c2cccc3c2cnn3-c2ccccc2F)C1=O)NC1CC(F)(F)C1` [Example 310, N-(3,3-difluorocyclobutyl)-2-{3-[1-(2-fluorophenyl)-1H-indazol-4-yl]-2-oxoimidazolidin-1-yl}acetamide], the IC50 at human Nav1.8 came out at 0.878 µM; on human Nav1.7, 2.81 µM.

Consider `O=C(/C=C\N1CCN(c2cccc3c2cnn3-c2ccccc2F)C1=O)N1CC[C@H](F)C1` [Example 314, 1-[1-(2-fluorophenyl)-1H-indazol-4-yl]-3-{(1Z)-3-[(3S)-3-fluoropyrrolidin-1-yl]-3-oxoprop-1-en-1-yl}imidazolidin-2-one], for which the figures for the IC50 at human Nav1.8 and at human Nav1.7 were 0.912 µM and 3.25 µM, respectively.

For `O=C(CN1CCN(c2cccc3c2cnn3-c2ccccc2F)C1=O)N1CCCC(F)(F)C1` [Example 296, 1-[2-(3,3-difluoropiperidin-1-yl)-2-oxoethyl]-3-[1-(2-fluorophenyl)-1H-indazol-4-yl]imidazolidin-2-one], the concentration for half-maximal inhibition (IC50) at human Nav1.8 came out at 1.31 µM; at human Nav1.7, 3.18 µM.

As for `NC(=O)[C@@H](Cc1ccccc1)NC(=O)CN1CCN(c2cccc3c2cnn3-c2ccccc2F)C1=O` [Example 345, Nα-({3-[1-(2-fluorophenyl)-1H-indazol-4-yl]-2-oxoimidazolidin-1-yl}acetyl)-D-phenylalaninamide], the figures for the half-inhibitory concentration (IC50) on human Nav1.8 and at human Nav1.7 were 1.78 µM and 6.06 µM, respectively.

Regarding `CC(C)(C)n1ncc2c(N3CCN(CC(=O)N4CC[C@H](F)C4)C3=O)cccc21` [Example 306, 1-(1-tert-butyl-1H-indazol-4-yl)-3-{2-[(3S)-3-fluoropyrrolidin-1-yl]-2-oxoethyl}imidazolidin-2-one], the half-inhibitory concentration (IC50) on human Nav1.8 and on human Nav1.7 was 20 µM in each case.

For the molecule `O=C(CN1CCN(c2cccc3c2cnn3-c2ccc(Cl)cc2)C1=O)N1CC[C@H](F)C1` [Example 338, 1-[1-(4-chlorophenyl)-1H-indazol-4-yl]-3-{2-[(3S)-3-fluoropyrrolidin-1-yl]-2-oxoethyl}imidazolidin-2-one], the results for the 50% inhibitory concentration (IC50) on human Nav1.8 and at human Nav1.7 were 2.62 µM and 1.06 µM, respectively.

As for `O=C(CN1CCN(c2cccc3c2cnn3-c2ccccc2F)C1=O)N[C@H]1CCOC1` [Example 87, 2-{3-[1-(2-fluorophenyl)-1H-indazol-4-yl]-2-oxoimidazolidin-1-yl}-N-[(3S)-tetrahydrofuran-3-yl]acetamide], the IC50 turned out to be 5.56 µM at human Nav1.8 and 2.46 µM on human Nav1.7.

Take `O=C(Cn1ccn(-c2cccc3c2cnn3-c2ccccc2F)c1=O)N1CC[C@H](F)C1` [Example 11, 1-[1-(2-fluorophenyl)-1H-indazol-4-yl]-3-{2-[(3S)-3-fluoropyrrolidin-1-yl]-2-oxoethyl}-1,3-dihydro-2H-imidazol-2-one]: the IC50 at human Nav1.8 is 1.47 µM; on human Nav1.7 it was 0.483 µM.

As for `CC(C)(C)NC(=O)CN1CCN(c2cccc3c2cnn3-c2ccccc2F)C1=O` [Example 339, N-tert-butyl-2-{3-[1-(2-fluorophenyl)-1H-indazol-4-yl]-2-oxoimidazolidin-1-yl}acetamide], the half-inhibitory concentration (IC50) amounted to 2.67 µM on human Nav1.8 and 5.67 µM at human Nav1.7.

Consider `CC(C)(C)OC(=O)CN1CCN(c2cccc3c2cnn3-c2ccccc2F)C1=O` [Example 286, tert-butyl {3-[1-(2-fluorophenyl)-1H-indazol-4-yl]-2-oxoimidazolidin-1-yl}acetate], for which the values for the 50% inhibitory concentration (IC50) on human Nav1.8 and at human Nav1.7 were 3 µM and 3.17 µM, respectively.

`O=C1CC(NC(=O)CN2CCN(c3cccc4c3cnn4-c3ccccc3F)C2=O)C1` [Example 349, 2-{3-[1-(2-fluorophenyl)-1H-indazol-4-yl]-2-oxoimidazolidin-1-yl}-N-(3-oxocyclobutyl)acetamide]: the half-inhibitory concentration (IC50) at human Nav1.8 was determined as 7.57 µM; at human Nav1.7, 15.1 µM.
